Measured values reported in patent US12128035B2, “Activating pyruvate kinase R” (Novo Nordisk Health Care AG, priority 2021, dated 2024).

Test: Phase 1 SAD/MAD: plasma pharmacokinetics in healthy volunteers
Assay type: in vivo, human
Conditions: 14 days of dosing in healthy subjects
Text: This is a first-in-human (FIH), Phase 1 study of Compound 1 that will characterize the safety, PK, and PD of Compound 1 after a single dose and after repeated dosing first in healthy adult volunteers and then in adolescents or adults with sickle cell disease. Initially, a dose range of Compound 1 in single ascending dose (SAD) escalation cohorts will be explored in healthy subjects. Enrollment of healthy subjects into 2-week multiple ascending dose (MAD) escalation cohorts will be initiated once the safety and PK from at least two SAD cohorts is available to inform the doses for the 2-week MAD portion of the study. The MAD cohorts will then run in parallel to the single dose cohorts. A single dose cohort is planned to understand food effects (FE) on the PK of Compound 1. […]
In this study, SAD/MAD cohorts are randomized (3 to 1) to receive Compound 1 or placebo (P). Compound 1 was evaluated first in 4 healthy SAD cohorts and 4 healthy MAD (14-day dosing period) cohorts. Based on the safety, and PK/PD profile from HS, Compound 1 is then evaluated in 1 SCD SAD cohort and 2 SCD MAD cohorts. Specifically, based on the safety and pharmacokinetic/pharmacodynamics (PK/PD) profile in healthy volunteer studies, Compound 1 is evaluated in patients (pts) with SCD, first in a single dose (SD or SAD) cohort and then in multiple-dose (MD or MAD) cohorts (14-day and 12-week). […]

For `O=C([C@H](CO)c1ccccc1)N1CC2=C(C1)CN(S(=O)(=O)c1cnc3c(c1)OCCO3)C2` (single isomer, unassigned) [Compound 1], the “clearance on day 1 and day 14” value was “unchanged”.
